Measured values: the CheMixHub drug solubility set

Experiment: xn = mol fraction of the nth substance listed, in the solute-free solvent

CC(=O)OC(c1ccccc1)C(Cl)(Cl)Cl (centres undefined) + CC(C)O + O
solubility (g/100 g solution)
Settings | 288.15 K | 293.15 K | 298.15 K | 303.15 K | 308.15 K | 313.15 K | 318.15 K | 323.15 K | 328.15 K
x2 = 0.3 | 0.121 | 0.305 | 0.695 | 1.28 | 1.93 | 2.84 | 3.53 | 4.2 | 4.91
x2 = 0.4 | 0.68 | 1.07 | 1.66 | 2.53 | 3.38 | 4.59 | 5.99 | 7.89 | 10.2
x2 = 0.5 | 1.44 | 1.92 | 2.68 | 3.57 | 4.9 | 6.25 | 8.62 | 11.3 | 15.3
x2 = 0.6 | 2.16 | 2.57 | 3.54 | 4.68 | 6.23 | 7.88 | 10.9 | 14.7 | 19.1
x2 = 0.7 | 2.5 | 3.03 | 4.15 | 5.52 | 7.14 | 9.44 | 12.2 | 16.8 | 21.4
x2 = 0.8 | 2.69 | 3.35 | 4.57 | 6.3 | 7.95 | 10.4 | 13.8 | 18.5 | 23.5
x2 = 0.9 | 2.86 | 3.67 | 5.1 | 6.71 | 8.39 | 10.9 | 14.4 | 19.4 | 25.3

Nc1cncc(Cl)n1 + CC(O)CO + O
solubility (g/100 g solution)
Settings | 278.15 K | 283.15 K | 288.15 K | 293.15 K | 298.15 K | 303.15 K | 308.15 K | 313.15 K | 318.15 K | 323.15 K
x2 = 0.02564 | – | – | – | – | – | – | – | – | – | 0.0333
x2 = 0.0559 | – | – | – | – | – | – | – | – | – | 0.0456
x2 = 0.09214 | 0.064 | 0.0784 | 0.093 | 0.112 | 0.133 | 0.158 | 0.185 | 0.216 | 0.25 | 0.292
x2 = 0.1364 | 0.0887 | 0.109 | 0.129 | 0.156 | 0.184 | 0.218 | 0.255 | 0.297 | 0.343 | 0.401
x2 = 0.1915 | 0.112 | 0.137 | 0.166 | 0.2 | 0.239 | 0.281 | 0.33 | 0.384 | 0.445 | 0.521
x2 = 0.2621 | 0.135 | 0.168 | 0.206 | 0.251 | 0.298 | 0.351 | 0.413 | 0.48 | 0.555 | 0.649
x2 = 0.3559 | 0.156 | 0.196 | 0.237 | 0.29 | 0.345 | 0.406 | 0.479 | 0.557 | 0.644 | 0.757
x2 = 0.4865 | 0.159 | 0.205 | 0.253 | 0.308 | 0.371 | 0.435 | 0.512 | 0.599 | 0.694 | 0.815
x2 = 0.6806 | 0.159 | 0.201 | 0.247 | 0.307 | 0.365 | 0.431 | 0.508 | 0.593 | 0.688 | 0.814

O=C1CCc2ccc(OCCCCN3CCN(c4cccc(Cl)c4Cl)CC3)cc2N1 + CCC(C)=O + CC(C)=O
solubility (g/100 g solution)
Settings | 278.15 K | 283.15 K | 288.15 K | 293.15 K | 298.15 K | 303.15 K | 308.15 K | 313.15 K | 318.15 K
x2 = 0.1 | 0.779 | 0.97 | 1.13 | 1.44 | 1.75 | 2.16 | 2.61 | 3.34 | 4.18
x2 = 0.2 | 0.882 | 1.07 | 1.25 | 1.61 | 1.94 | 2.32 | 2.83 | 3.58 | 4.41
x2 = 0.3 | 0.948 | 1.16 | 1.34 | 1.71 | 2.09 | 2.46 | 3.02 | 3.74 | 4.62
x2 = 0.4 | 1.01 | 1.22 | 1.43 | 1.78 | 2.19 | 2.59 | 3.21 | 3.88 | 4.8
x2 = 0.5 | 1.05 | 1.28 | 1.5 | 1.86 | 2.28 | 2.71 | 3.34 | 4.01 | 4.96
x2 = 0.6 | 1.09 | 1.34 | 1.57 | 1.93 | 2.36 | 2.82 | 3.46 | 4.13 | 5.1
x2 = 0.7 | 1.12 | 1.38 | 1.63 | 1.99 | 2.43 | 2.91 | 3.54 | 4.23 | 5.21
x2 = 0.8 | 1.15 | 1.43 | 1.68 | 2.06 | 2.49 | 2.99 | 3.62 | 4.3 | 5.27
x2 = 0.9 | 1.17 | 1.47 | 1.72 | 2.12 | 2.54 | 3.06 | 3.68 | 4.35 | 5.31

COC1=CC(=O)CC(C)C12Oc1c(Cl)c(OC)cc(OC)c1C2=O (centres undefined) + CCC(C)=O + CC(C)O
solubility (g/100 g solution)
Settings | 283.15 K | 288.15 K | 293.15 K | 298.15 K | 303.15 K | 308.15 K | 313.15 K | 318.15 K | 323.15 K
x2 = 0.1 | 0.162 | 0.217 | 0.254 | 0.338 | 0.391 | 0.463 | 0.543 | 0.669 | 0.836
x2 = 0.2 | 0.326 | 0.374 | 0.44 | 0.557 | 0.606 | 0.77 | 0.892 | 1.05 | 1.26
x2 = 0.3 | 0.497 | 0.571 | 0.668 | 0.821 | 0.894 | 1.11 | 1.28 | 1.52 | 1.79
x2 = 0.4 | 0.684 | 0.779 | 0.9 | 1.11 | 1.23 | 1.44 | 1.68 | 1.93 | 2.25
x2 = 0.5 | 0.96 | 1.07 | 1.21 | 1.4 | 1.59 | 1.85 | 2.11 | 2.4 | 2.79
x2 = 0.6 | 1.22 | 1.37 | 1.51 | 1.75 | 1.98 | 2.26 | 2.58 | 2.92 | 3.41
x2 = 0.7 | 1.5 | 1.66 | 1.8 | 2.07 | 2.31 | 2.62 | 2.97 | 3.34 | 3.79
x2 = 0.8 | 1.7 | 1.87 | 2.04 | 2.37 | 2.6 | 2.94 | 3.29 | 3.75 | 4.16
x2 = 0.9 | 1.84 | 2.02 | 2.22 | 2.58 | 2.81 | 3.18 | 3.52 | 4 | 4.41

O=C1CCc2ccc(OCCCCN3CCN(c4cccc(Cl)c4Cl)CC3)cc2N1 + CCC(C)=O + CCCO
solubility (g/100 g solution)
Settings | 278.15 K | 283.15 K | 288.15 K | 293.15 K | 298.15 K | 303.15 K | 308.15 K | 313.15 K | 318.15 K
x2 = 0.1 | 0.703 | 0.851 | 1.04 | 1.22 | 1.46 | 1.7 | 2.04 | 2.61 | 3.38
x2 = 0.2 | 1.03 | 1.2 | 1.44 | 1.69 | 1.98 | 2.38 | 2.87 | 3.56 | 4.45
x2 = 0.3 | 1.32 | 1.52 | 1.88 | 2.29 | 2.68 | 3.15 | 3.67 | 4.46 | 5.5
x2 = 0.4 | 1.6 | 1.86 | 2.24 | 2.74 | 3.21 | 3.77 | 4.34 | 5.18 | 6.36
x2 = 0.5 | 1.86 | 2.05 | 2.48 | 3.03 | 3.59 | 4.13 | 4.81 | 5.82 | 7.2
x2 = 0.6 | 2.04 | 2.25 | 2.67 | 3.18 | 3.75 | 4.3 | 5.16 | 6.36 | 7.89
x2 = 0.7 | 1.98 | 2.21 | 2.62 | 3.12 | 3.68 | 4.22 | 5.04 | 6.23 | 7.71
x2 = 0.8 | 1.84 | 2.09 | 2.47 | 2.96 | 3.48 | 4.03 | 4.72 | 5.83 | 7.15
x2 = 0.9 | 1.68 | 1.94 | 2.27 | 2.69 | 3.12 | 3.61 | 4.21 | 5.13 | 6.36

O=C1CCc2ccc(OCCCCN3CCN(c4cccc(Cl)c4Cl)CC3)cc2N1 + CCC(C)=O + CCOC(C)=O
solubility (g/100 g solution)
Settings | 278.15 K | 283.15 K | 288.15 K | 293.15 K | 298.15 K | 303.15 K | 308.15 K | 313.15 K | 318.15 K
x2 = 0.1 | 0.601 | 0.745 | 0.882 | 1.04 | 1.24 | 1.57 | 1.88 | 2.26 | 2.76
x2 = 0.2 | 0.641 | 0.794 | 0.953 | 1.12 | 1.37 | 1.74 | 2.08 | 2.45 | 2.98
x2 = 0.3 | 0.681 | 0.845 | 1.04 | 1.22 | 1.48 | 1.91 | 2.28 | 2.68 | 3.24
x2 = 0.4 | 0.73 | 0.907 | 1.14 | 1.32 | 1.61 | 2.06 | 2.48 | 2.92 | 3.53
x2 = 0.5 | 0.778 | 0.975 | 1.23 | 1.44 | 1.75 | 2.22 | 2.66 | 3.16 | 3.8
x2 = 0.6 | 0.825 | 1.05 | 1.32 | 1.57 | 1.89 | 2.39 | 2.86 | 3.4 | 4.12
x2 = 0.7 | 0.879 | 1.13 | 1.43 | 1.69 | 2.03 | 2.55 | 3.04 | 3.65 | 4.42
x2 = 0.8 | 0.948 | 1.22 | 1.53 | 1.83 | 2.18 | 2.72 | 3.25 | 3.87 | 4.75
x2 = 0.9 | 1.04 | 1.34 | 1.63 | 1.98 | 2.36 | 2.91 | 3.48 | 4.12 | 5.04

O=C(O)c1cc([N+](=O)[O-])ccc1O + CCCO + O
solubility (g/100 g solution)
Settings | 278.15 K | 283.15 K | 288.15 K | 293.15 K | 298.15 K | 303.15 K | 308.15 K | 313.15 K | 318.15 K | 323.15 K
x2 = 0.03225 | 0.0803 | 0.104 | 0.134 | 0.171 | 0.216 | 0.26 | 0.316 | 0.38 | 0.458 | 0.542
x2 = 0.06974 | 0.189 | 0.227 | 0.294 | 0.366 | 0.45 | 0.559 | 0.678 | 0.817 | 1.01 | 1.24
x2 = 0.1139 | 0.45 | 0.55 | 0.689 | 0.87 | 1.08 | 1.3 | 1.55 | 1.79 | 2.07 | 2.41
x2 = 0.1666 | 0.839 | 1.02 | 1.3 | 1.63 | 2.02 | 2.42 | 2.82 | 3.28 | 3.77 | 4.3
x2 = 0.2307 | 1.52 | 1.91 | 2.38 | 2.94 | 3.59 | 4.22 | 4.85 | 5.61 | 6.41 | 7.29
x2 = 0.3103 | 2.34 | 2.82 | 3.45 | 4.11 | 4.94 | 5.73 | 6.68 | 7.75 | 8.82 | 10.2
x2 = 0.4117 | 3.55 | 4.17 | 4.92 | 5.66 | 6.64 | 7.67 | 8.85 | 9.98 | 11.2 | 12.6
x2 = 0.5454 | 4.75 | 5.34 | 6.09 | 7.02 | 8.12 | 9.33 | 10.6 | 12 | 13.4 | 15.1
x2 = 0.7297 | 5.59 | 6.57 | 7.78 | 8.73 | 9.96 | 11.3 | 12.4 | 13.8 | 15.2 | 16.8
